These are literature values, as cited in patent US8003635B2, “Superoxide dismutase mimics for the treatment of ocular disorders and diseases” (Novartis AG, priority 2001, dated 2011).

The test system of data set [1] is light-induced retinal damage. As to conditions: albino rats.
Data set [2] deals with onset of diabetes. To be noted: diabetogenic T-cell clone.
In data set [3] the test system is diabetic rats.

Consider `CC1(C)CC(O)CC(C)(C)N1[O]` [4-hydroxy-2,2,6,6-tetramethylpiperidine-1-oxyl], for which the light-induced retinal damage entry in data set [1] is on record as “inhibited light-induced retinal damage”.
For the compound `CCN1C=CC=C/C1=C1/C2=NC(=C(c3cccc[n+]3CC)C3=NC(=C(c4cccc[n+]4CC)c4ccc([n-]4)C(c4cccc[n+]4CC)=C4C=CC1=N4)C=C3)C=C2.[Cl-].[Cl-].[Cl-].[Cl-].[Cl-].[Mn+3]` [AEOL10113], the onset of diabetes entry in data set [2] is on record as “delay the onset of diabetes”.
As to `[Cl-].[Cl-].[Mn+2].c1cc2nc(c1)CN[C@@H]1CCCC[C@H]1NCCN[C@@H]1CCCC[C@H]1NC2` [M40403], the “vascular and neural dysfunction” value in data set [3] was “prevented vascular and neural dysfunction”.
